In US20240199587A1, “HETEROCYCLIC COMPOUNDS” (Hoffmann-La Roche Inc., priority 2021, published 2024):

What follows are molecules tested against T1, MAGL (Homo sapiens, UniProt Q99685) (assay: 2-AG assay (MAGL inhibitory activity, hydrolysis of 2-arachidonoylglycerol to arachidonic acid followed by mass spectrometry)). Settings: 8 μM 2-arachidonoylglycerol, 15 min pre-incubation, 30 min incubation at RT, RapidFire MS readout.
T1 sequence (Q99685 1-303): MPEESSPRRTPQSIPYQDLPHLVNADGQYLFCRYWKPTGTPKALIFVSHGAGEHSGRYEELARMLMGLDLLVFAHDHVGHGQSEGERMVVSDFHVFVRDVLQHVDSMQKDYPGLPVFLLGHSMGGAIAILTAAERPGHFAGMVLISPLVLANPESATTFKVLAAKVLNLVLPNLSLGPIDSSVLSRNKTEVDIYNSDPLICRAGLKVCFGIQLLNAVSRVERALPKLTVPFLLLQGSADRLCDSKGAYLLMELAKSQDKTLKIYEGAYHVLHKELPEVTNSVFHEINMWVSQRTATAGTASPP
Type: biochemical
Outline: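 Arachidonic acid released from 8 μM 2-arachidonoylglycerol was quantified by online SPE triple-quadrupole MS (negative ESI, 303.1→259.1), normalised to d8-arachidonic acid internal standard. Reaction ran 30 min at RT after 15 min RT compound pre-incubation with […] MAGL in TRIS/EDTA/Tween-20 buffer, 2.5% DMSO.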
An IC50 of 0.0104 µM was found for `N#Cc1cc(C(F)(F)F)ccc1O[C@H]1C[C@@H]2CN(C(=O)N3CC4(CC(n5cnc(C6CC6)n5)C4)C3)C[C@@H]2C1` [Example 114, 2-[[rac-(3aS,6aR)-2-[6-(3-cyclopropyl-1,2,4-triazol-1-yl)-2-azaspiro[3.3]heptane-2-carbonyl]-3,3a,4,5,6,6a-hexahydro-1H-cyclopenta[c]pyrrol-5-yl]oxy]-5-(trifluoromethyl) benzonitrile] in this work. An IC50 of 0.00098 µM was found for `O=C(N1CC2(CC(Cc3ccc(C(F)(F)F)nc3)C2)C1)N1CC2(CC(n3cnc(C4(O)CC4)n3)C2)C1` [Example 495, [6-[3-(1-hydroxycyclopropyl)-1,2,4-triazol-1-yl]-2-azaspiro[3.3]heptan-2-yl]-[6-[[6-(trifluoromethyl)-3-pyridyl]methyl]-2-azaspiro[3.3]heptan-2-yl]methanone] in this work. An IC50 of 0.001 µM was found for `O=C(N1C[C@H]2CC(Oc3ccc(F)cc3Cl)C[C@H]2C1)N1CC2(CC(n3cnc(C4CC4)n3)C2)C1` (mixture of isomers) [Example 93, [6-(3-cyclopropyl-1,2,4-triazol-1-yl)-2-azaspiro[3.3]heptan-2-yl]-[rac-(3aR,6aS)-5-(2-chloro-4-fluoro-phenoxy)-3,3a,4,5,6,6a-hexahydro-1H-cyclopenta[c]pyrrol-2-yl]methanone] in this work. An IC50 of 3.17 µM was found for `O=C(N1CC(c2ccc(C3(C(F)(F)F)CC3)cc2)C1)N1CC2(CC(n3ncnc3C3CC3)C2)C1` [Example 67, [6-(5-cyclopropyl-1,2,4-triazol-1-yl)-2-azaspiro13.31heptan-2-yl]−[3-[4-[1-(trifluoromethyl)cyclopropyl]phenyl]azetidin-1-yl]1methanone] in this work. An IC50 of 0.0483 µM was found for `O=C(N1CC(Oc2ccnc(C(F)(F)F)n2)C1)N1CC2(CC(n3cnc(C4CC4)n3)C2)C1` [Example 283, [6-(3-cyclopropyl-1,2,4-triazol-1-yl)-2-azaspiro[3.3]heptan-2-yl]-[3-[2-(trifluoromethyl)pyrimidin-4-yl]oxyazetidin-1-yl]methanone] in this work. An IC50 of 0.05 µM was found for `O=C(c1cnc(OCC2(C(F)(F)F)CC2)c(F)c1)N1CC2(CC(n3cnc(C4CC4)c3)C2)C1` [Example 28, [6-(4-cyclopropylimidazol-1-yl)-2-azaspiro[3.3]heptan-2-yl]-[5-fluoro-6-[[1-(trifluoromethyl)cyclo-propyl]methoxy]-3-pyridyl]methanone] in this work. An IC50 of 3.01 µM was found for `O=C(N1CC2(CC(n3cnc(C4CC4)n3)C2)C1)N1CC2(C1)CN(S(=O)(=O)C1CS(=O)(=O)C1)C2` [Example 339, [6-(3-cyclopropyl-1,2,4-triazol-1-yl)-2-azaspiro[3.3]heptan-2-yl]-[2-(1,1-dioxothietan-3-yl)sulfonyl-2,6-diazaspiro[3.3]heptan-6-yl]methanone] in this work. An IC50 of 0.00076 µM was found for `O=C(N1CC(C23CC(NCC4(C(F)(F)F)CC4)(C2)C3)C1)N1CC2(CC(n3cnc(C(F)(F)F)n3)C2)C1` [Example 421, [3-[3-[[1-(trifluoromethyl)cyclopropyl]methylamino]-1-bicyclo[1.1.1]pentanyl]azetidin-1-yl]-[6-[3-(trifluoromethyl)-1,2,4-triazol-1-yl]-2-azaspiro[3.3]heptan-2-yl]methanone] in this work. An IC50 of 0.0621 µM was found for `O=C(N1CC(c2nnc(-c3ccc(F)cc3F)[nH]2)C1)N1CC2(CC(n3cnc(C4CC4)n3)C2)C1` [Example 289, [6-(3-cyclopropyl-1,2,4-triazol-1-yl)-2-azaspiro[3.3]heptan-2-yl]-[3-[5-(2,4-difluorophenyl)-4H-1,2,4-triazol-3-yl]azetidin-1-yl]methanone] in this work. An IC50 of 1.03 µM was found for `CC(C)(C)c1nc(-c2ccc(C(=O)N3CC4(C3)CC(O)(c3cnc(C5CC5)o3)C4)cc2)no1` [Example 179, [4-(5-tert-butyl-1,2,4-oxadiazol-3-yl)phenyl]−[6-(2-cyclopropyloxazol-5-yl)-6-hydroxy-2-azaspiro[3.3]heptan-2-yl]methanone] in this work. An IC50 of 0.00071 µM was found for `O=C(N1CC2(CC(NS(=O)(=O)c3cccc(C(F)(F)F)c3)C2)C1)N1CC2(CC(n3cnc(C(F)(F)F)n3)C2)C1` [Example 454, 3-(trifluoromethyl)-N-[2-[6-[3-(trifluoromethyl)-1,2,4-triazol-1-yl]-2-azaspiro[3.3]heptane-2-carbonyl]-2-azaspiro[3.3]heptan-6-yl]benzenesulfonamide] in this work. An IC50 of 0.0396 µM was found for `CS(=O)(=O)c1ccc(CN2CC3(C2)CN(C(=O)N2CC4(CC(n5cnc(C6CC6)n5)C4)C2)C3)cc1` [Example 500, [6-(3-cyclopropyl-1,2,4-triazol-1-yl)-2-azaspiro[3.3]heptan-2-yl]-[6-[(4-methylsulfonylphenyl)methyl]-2,6-diazaspiro[3.3]heptan-2-yl]methanone] in this work. An IC50 of 1.76 µM was found for `CC(C)c1ccc(N(C)c2ccc(C3CN(C(=O)N4CC5(CC(c6ccc(C(F)(F)F)nc6)C5)C4)C3)cn2)cc1` [Example 534, [3-[6-(4-isopropyl-N-methyl-anilino)-3-pyridyl]azetidin-1-yl]-[6-[6-(trifluoromethyl)-3-pyridyl]-2-azaspiro[3.3]heptan-2-yl]methanone] in this work. An IC50 of 0.813 µM was found for `O=C(N1CC(OCc2ccc(F)cc2Cl)C1)N1CC2(CC(c3ccc(C(F)(F)F)nc3)C2)C1` [Example 533, [3-[(2-chloro-4-fluoro-phenyl)methoxy]azetidin-1-yl]-[6-[6-(trifluoromethyl)-3-pyridyl]-2-azaspiro[3.3]heptan-2-yl]methanone] in this work. An IC50 of 0.301 µM was found for `NS(=O)(=O)c1ccc(F)c(CC2CCN(C(=O)N3CC4(CC(n5cnc(C6CC6)n5)C4)C3)CC2)c1` [Example 319] in this work. An IC50 of 0.24 µM was found for `Cc1cn(C2CC3(C2)CN(C(=O)N2CC(OCc4ccc(S(F)(F)(F)(F)F)cc4)C2)C3)cn1` [Example 315, [6-(4-methylimidazol-1-yl)-2-azaspiro[3.3]heptan-2-yl]-[3-[[4-(pentafluoro-26-sulfanyl)phenyl]methoxy]azetidin-1-yl]methanone] in this work. An IC50 of 0.0054 µM was found for `O=C(N1C[C@H]2C[C@H](Oc3ccc(F)cc3F)C[C@H]2C1)N1CC2(CC(n3cnc(C4CC4)n3)C2)C1` [Example 121, [6-(3-cyclopropyl-1,2,4-triazol-1-yl)-2-azaspiro[3.3]heptan-2-yl]-[rac-(3aS,6aR)-5-(2,4-difluorophenoxy)-3,3a,4,5,6,6a-hexahydro-1H-cyclopenta[c]pyrrol-2-yl]methanone] in this work. An IC50 of 0.0344 µM was found for `O=C(N1CC2(CC(n3cnc(C4CC4)n3)C2)C1)N1CC2(C1)CN(S(=O)(=O)c1ccc(F)c(F)c1)C2` [Example 273, [6-(3-cyclopropyl-1,2,4-triazol-1-yl)-2-azaspiro[3.3]heptan-2-yl]-[2-(3,4-difluorophenyl)sulfonyl-2,6-diazaspiro[3.3]heptan-6-yl]methanone] in this work. An IC50 of 0.134 µM was found for `Cc1cc(C2CC2)n(C23CC(C4CN(C(=O)N5CC6(CC(n7cnc(C8(O)CC8)n7)C6)C5)C4)(C2)C3)n1` [Example 355, [3-[3-(5-cyclopropyl-3-methyl-pyrazol-1-yl)-1-bicyclo[1.1.1]pentanyl]azetidin-1-yl]-[6-[3-(1-hydroxycyclopropyl)-1,2,4-triazol-1-yl]-2-azaspiro[3.3]heptan-2-yl]methanone] in this work. An IC50 of 0.176 µM was found for `CNC(=O)C(c1ccccc1)N1CC2(CN(C(=O)N3CC4(CC(n5cnc(C6CC6)n5)C4)C3)C2)C1` (centres unmarked) [Example 311, 2-[2-[6-(3-cyclopropyl-1,2,4-triazol-1-yl)-2-azaspiro[3.3]heptane-2-carbonyl]-2,6-diazaspiro[3.3]heptan-6-yl]-N-methyl-2-phenyl-acetamide] in this work. An IC50 of 0.0245 µM was found for `O=C(N1CC(c2ccc(CC(F)(F)F)cc2)C1)N1CC2(CC(n3cnc(C4CC4)n3)C2)C1` [Example 37, [6-(3-cyclopropyl-1,2,4-triazol-1-yl)-2-azaspiro[3.3]heptan-2-yl]-[3-[4-(2,2,2-trifluoroethyl)phenyl]azetidin-1-yl]methanone] in this work. An IC50 of 0.156 µM was found for `O=C(N1C[C@H]2CC(Oc3ccc(F)cc3Cl)C[C@H]2C1)N1CC2(CC(n3cnnc3C3CC3)C2)C1` (mixture of isomers) [Example 178, [6-(3-cyclopropyl-1,2,4-triazol-4-yl)-2-azaspiro[3.3]heptan-2-yl]−[rac-(3aS,6aR)-5-(2-chloro-4-fluoro-phenoxy)-3,3a,4,5,6,6a-hexahydro-1H-cyclopenta[c]pyrrol-2-yl]methanone] in this work. An IC50 of 0.0275 µM was found for `O=C(N1CC2(CC(Cc3ccc(C(F)(F)F)nn3)C2)C1)N1CC2(CC(n3cnc(C4(O)CC4)n3)C2)C1` [Example 409, [6-[3-(1-hydroxycyclopropyl)-1,2,4-triazol-1-yl]-2-azaspiro[3.3]heptan-2-yl]-[6-[[6-(trifluoromethyl)pyridazin-3-yl]methyl]-2-azaspiro[3.3]heptan-2-yl]methanone] in this work. An IC50 of 0.0054 µM was found for `O=C(N1CC2(CC(Oc3cnc(C(F)(F)F)nc3)C2)C1)N1CC2(CC(n3cnc(C4CC4)n3)C2)C1` [Example 61, (6-(3-cyclopropyl-1H-1,2,4-triazol-1-yl)-2-azaspiro[3.3]heptan-2-yl)(6-((2-(trifluoromethyl)pyrimidin-5-yl)oxy)-2-azaspiro[3.3]heptan-2-yl)methanone] in this work. An IC50 of 0.0053 µM was found for `COc1ccc(OC2CC3(C2)CN(C(=O)N2CC4(CC(n5cnc(C6CC6)n5)C4)C2)C3)cn1` [Example 60, (6-(3-cyclopropyl-1H-1,2,4-triazol-1-yl)-2-azaspiro[3.3]heptan-2-yl)(6-((6-methoxypyridin-3-yl)oxy)-2-azaspiro[3.3]heptan-2-yl)methanone] in this work. An IC50 of 0.0002 µM was found for `N#Cc1cc(OC(F)(F)F)ccc1OC1CC2(C1)CN(C(=O)N1CC3(CC(n4cnc(C5CC5)n4)C3)C1)C2` [Example 47] in this work.
